Measurements: patent US6344452B1, “1,5-benzodiazepine derivatives” (Zeria Pharmaceuticals Co., Ltd., priority 1998, dated 2002)

Tests used:
CCK-B receptor = biological target: T1, CCK-B receptor (Cavia porcellus, UniProt H0VZC5); assay: CCK-B receptor binding test ([3H]CCK-B, guinea pig cerebral cortex); conditions: [3H]CCK-B 1.0 nM, guinea pig cerebral cortex membranes, 25° C., 2 hours; read-out: binding inhibition constant (Ki value)
T1 construct: the homogenate was provided as a receptor sample; from tissue; host or cells: guinea pig cerebral cortex membrane homogenate
T1 sequence (H0VZC5 1-426): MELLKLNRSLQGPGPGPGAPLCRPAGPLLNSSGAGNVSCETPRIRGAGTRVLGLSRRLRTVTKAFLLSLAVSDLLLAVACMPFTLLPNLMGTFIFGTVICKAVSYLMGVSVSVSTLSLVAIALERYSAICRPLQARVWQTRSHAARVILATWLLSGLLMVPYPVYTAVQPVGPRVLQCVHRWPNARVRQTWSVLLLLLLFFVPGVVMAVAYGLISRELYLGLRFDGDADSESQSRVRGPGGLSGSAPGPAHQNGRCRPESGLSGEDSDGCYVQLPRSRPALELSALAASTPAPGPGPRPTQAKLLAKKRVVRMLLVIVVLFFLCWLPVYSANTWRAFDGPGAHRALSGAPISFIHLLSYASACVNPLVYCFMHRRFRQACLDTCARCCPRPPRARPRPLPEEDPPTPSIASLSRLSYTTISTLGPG
Protocol: <CCK-B Receptor Binding Test>
From a male Hartley strain guinea pig, the cerebral cortex was removed. After the cerebral cortex was homogenized with 50 mM tris-HCl buffer (pH 7.4) in an amount 50 times as much as the weight of the cerebral cortex, the homogenate was centrifuged under 50,000 g for 10 minutes. With respect to the resulting pellet, addition of the same buffer in the same amount and centrifugation were repeated twice. […]
As a binding experiment, a [^3H]CCK-B solution of a final concentration of 1.0 nM (50 μL) and the receptor sample (protein content: 800 μg/tube) (900 μL) were added to the solvent, the CCK-B solution of a final concentration of 1.0 μM or a test compound solution (50 μL), followed by a reaction at 25° C. for 2 hours. […] ACS-II scintillator was added to the filter and, after the filter was left over for 24 hours, the radioactivity concentration on the filter was measured by a liquid scintillation counter. A binding in the presence of CCK-B (1 μM) was recorded as a non-specific binding, while a value obtained by subtracting the non-specific binding from a full binding, which had been obtained using the solvent instead of CCK-B, was recorded as a specific binding. From the specific binding of [^3H]CCK-B, the binding inhibition constant (Ki value) of the compound was calculated.

CCK-A receptor = biological target: T2, CCK-A receptor (Cavia porcellus, UniProt Q63931); assay: CCK-A receptor binding test ([3H]L-364,718, guinea pig pancreas); conditions: [3H]L-364,718 0.2 nM, guinea pig pancreas membranes, 25° C., 2 hours; read-out: binding inhibition constant (Ki value)
T2 construct: The homogenate was provided as a receptor sample; from tissue; host or cells: guinea pig pancreas membrane homogenate
T2 sequence (Q63931 1-430): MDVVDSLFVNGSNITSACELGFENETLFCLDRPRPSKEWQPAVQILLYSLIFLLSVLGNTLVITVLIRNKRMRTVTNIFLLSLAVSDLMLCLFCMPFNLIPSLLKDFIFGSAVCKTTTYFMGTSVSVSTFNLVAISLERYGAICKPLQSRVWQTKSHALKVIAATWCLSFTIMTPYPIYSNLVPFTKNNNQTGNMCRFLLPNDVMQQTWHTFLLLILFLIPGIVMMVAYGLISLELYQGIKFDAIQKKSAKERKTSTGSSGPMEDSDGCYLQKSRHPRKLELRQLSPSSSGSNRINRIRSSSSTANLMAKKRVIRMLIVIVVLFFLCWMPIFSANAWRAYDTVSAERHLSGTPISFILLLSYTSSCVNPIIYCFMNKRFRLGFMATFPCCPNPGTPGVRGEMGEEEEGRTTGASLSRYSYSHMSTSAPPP
Protocol: <CCK-A Receptor Binding Test>
From a male Hartley strain guinea pig, the pancreas was removed. The pancreas was homogenized with 10 mM PIPES buffer (pH 6.5, hereinafter called “the solvent”) in an amount 40 times as much as the weight of the pancreas. The solvent contained EGTA (1 mM), magnesium chloride (30 mM), bacitracin (0. 02%) , soybean trypsin inhibitor (0.02%), and sucrose (0.3 M). After filtered through gauze, the homogenate was centrifuged under 50,000 g for 10 minutes. To the resulting pellet, the solvent was added again in an amount as much as the pellet, followed by centrifugation. To the thus-obtained pellet the solvent was added in an amount 40 times as much as the pellet, and the pellet was homogenized. […]
As a binding experiment, a solution (50 μL) of [^3H]L-364,718 (devazepide), said solution having a final concentration of 0.2 nM, and the receptor sample (protein content: 50 μg/tube) (900 μL) were added to the solvent, an L-364,718 solution of a final concentration of 1 μM or a test compound solution (50 μL), followed by a reaction at 25° C. for 2 hours. […] ACS-II scintillator was added to the filter and, after the filter was left over for 24 hours, the radioactivity concentration on the filter was measured by a liquid scintillation counter. […] From the specific binding of [^3H]L-364,718, the binding inhibition constant (Ki value) of the compound was calculated.

[1] = tested on: pentagastrin-stimulated acid secretion; assay: Inhibition test on pentagastrin-stimulated acid secretion in beagles with Heidenhain pouch; type: in vivo, beagle; conditions: 1 mg/kg oral (gelatin capsules), acid output 1st to 4th hour after administration
Protocol: <Inhibition Test on Pentagastrin-stimulated Acid Secretion in Beagles with Heidenhain Pouch>
Male beagles with Heidenhain pouch formed beforehand were used. Pentagastrin was continuously and intravenously injected at 4 μg/kg/hr. Upon an elapsed time of 3 hours after the initiation of the continuous injection of pentagastrin, each test compound was filled in gelatin capsules and orally administered. The acidity of sampled gastric juice was measured using an autotitrater, and a product of the acidity and the amount of the gastric juice was recorded as an acid output. Supposing -that an acid output during 1 hour preceding the administration was 100%, acid output over 3 hours ranging from the 1st hour to the 4th hour after the administration of the test compound were converted into percentages (acid output percentages). Based on such acid output percentages, the acid output inhibition rate of each beagle was determined using the below-described formula. An average of such acid output inhibition rates was recorded as the acid inhibition rate of the compound. […] [formula]

[2] = tested on: pentagastrin-stimulated acid secretion; assay: Inhibition test on pentagastrin-stimulated acid secretion in rats; type: in vivo, rat; conditions: SD rats, acid output 1st to 4th hour after administration
Protocol: <Inhibition Test on Pentagastrin-stimulated Acid Secretion in Rats>
Male Sprague-Dawley (SD) strain rats were used. Under anesthesia with ethyl ether, operations were performed on each rat to ligate the gastric antrum and also to arrange an intraduodenal catheter and a gastric fistula tube. After completion of the operations, the rat was placed in a Ballmann cage, and pentagastrin was continuously injected at 15 μg/kg/hr through the caudal vein. Each test compound was formed into a suspension by using a 0.5% carboxymethylcellulose sodium solution (hereinafter called “the solvent”). Upon an elapsed timeof 1 hour from the initiation of the injection of pentagastrin, the solvent or the test compound was administered through the intraduodenal catheter. The acidity of sampled gastric juice was measured using an autotitrater, and a product of the acidity and the amount of the gastric juice was recorded as an acid output. […] [formula]

Row | SMILES | melting point | Ki (CCK-B receptor) [nM] | Ki (CCK-A receptor) [nM] | acid secretion inhibition [1] [%] | acid secretion inhibition ([2]; 0.3 mg/kg intraduodenal) [%] | acid secretion inhibition ([2]; 0.1 mg/kg intraduodenal) [%]
1 | CC(C)(C)C(=O)CN1C(=O)C(NC(=O)Nc2cccc(C(C)(C)C(=O)O)c2)CN(C2CCCCC2)c2ccccc21 (racemic) [Example 1, (±)-2-[3-[3-(1-tert-butylcarbonylmethyl-2-oxo-5-cyclohexyl-1,3,4,5-tetrahydro-2H-1,5-benzodiazepin-3-yl)ureido]phenyl]-2-methylpropionic acid] | 215 to 216 °C (dec.) | – | – | – | – | –
2 | CC(C)(C)C(=O)CN1C(=O)[C@H](NC(=O)Nc2cccc(C(C)(C)C(=O)O)c2)CN(C2CCCCC2)c2ccccc21 [Example 2, (R)-(−)-2-[3-[3-(1-tert-butylcarbonylmethyl-2-oxo-5-cyclohexyl-1,3,4,5-tetrahydro-2H-1,5-benzodiazepin-3-yl)ureido]phenyl]-2-methylpropionic acid] | – | 0.74 | 438 | 77.9 | 72.7 | –
3 | CC(C)(C)C(=O)CN1C(=O)[C@H](NC(=O)Nc2cccc(C(C)(C)C(=O)O)c2)CN(C2CCCCC2)c2ccccc21 [Example 5, sodium (R)-2-[3-[3-(1-tert-butylcarbonylmethyl-2-oxo-5-cyclohexyl-1,3,4,5-tetrahydro-2H-1,5-benzodiazepin-3-yl)ureido]phenyl]-2-methylpropionate] | – | – | – | – | 79.3 | 48.4
